Experimental findings from ChEMBL document CHEMBL3039007, “Structure-based identification of OATP1B1/3 inhibitors” (Mol Pharmacol, 2013) are described below.

Values joined by “and” are separate entries in the source; they are usually repeats but may differ in a detail not shown here. Equal entries are not always repeated.

Series [1] addresses T1, Solute carrier organic anion transporter family member 1B1 (Homo sapiens, UniProt Q9Y6L6).
T1 sequence (Q9Y6L6 whole entry): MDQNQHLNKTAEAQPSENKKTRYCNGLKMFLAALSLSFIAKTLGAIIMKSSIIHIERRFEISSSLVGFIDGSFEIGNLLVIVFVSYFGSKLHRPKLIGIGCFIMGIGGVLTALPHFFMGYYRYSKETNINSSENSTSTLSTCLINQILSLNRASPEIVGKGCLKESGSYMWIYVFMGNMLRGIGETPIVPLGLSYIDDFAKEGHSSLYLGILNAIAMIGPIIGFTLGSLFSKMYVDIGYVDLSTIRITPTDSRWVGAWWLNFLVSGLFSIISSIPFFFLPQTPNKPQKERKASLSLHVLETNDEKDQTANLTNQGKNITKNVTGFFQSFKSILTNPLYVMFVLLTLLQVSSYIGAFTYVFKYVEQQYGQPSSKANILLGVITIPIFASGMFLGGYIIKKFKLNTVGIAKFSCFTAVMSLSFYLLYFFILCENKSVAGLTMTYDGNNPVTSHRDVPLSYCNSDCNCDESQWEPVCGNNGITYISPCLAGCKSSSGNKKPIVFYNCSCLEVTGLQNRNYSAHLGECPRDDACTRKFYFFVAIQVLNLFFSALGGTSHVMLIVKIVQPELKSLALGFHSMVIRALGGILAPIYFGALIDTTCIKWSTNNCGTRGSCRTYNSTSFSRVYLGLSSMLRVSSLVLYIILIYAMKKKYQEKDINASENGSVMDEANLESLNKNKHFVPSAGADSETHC

In series [2] the target is T2, Solute carrier organic anion transporter family member 1B3 (Homo sapiens, UniProt Q9NPD5).
T2 sequence (Q9NPD5 whole entry): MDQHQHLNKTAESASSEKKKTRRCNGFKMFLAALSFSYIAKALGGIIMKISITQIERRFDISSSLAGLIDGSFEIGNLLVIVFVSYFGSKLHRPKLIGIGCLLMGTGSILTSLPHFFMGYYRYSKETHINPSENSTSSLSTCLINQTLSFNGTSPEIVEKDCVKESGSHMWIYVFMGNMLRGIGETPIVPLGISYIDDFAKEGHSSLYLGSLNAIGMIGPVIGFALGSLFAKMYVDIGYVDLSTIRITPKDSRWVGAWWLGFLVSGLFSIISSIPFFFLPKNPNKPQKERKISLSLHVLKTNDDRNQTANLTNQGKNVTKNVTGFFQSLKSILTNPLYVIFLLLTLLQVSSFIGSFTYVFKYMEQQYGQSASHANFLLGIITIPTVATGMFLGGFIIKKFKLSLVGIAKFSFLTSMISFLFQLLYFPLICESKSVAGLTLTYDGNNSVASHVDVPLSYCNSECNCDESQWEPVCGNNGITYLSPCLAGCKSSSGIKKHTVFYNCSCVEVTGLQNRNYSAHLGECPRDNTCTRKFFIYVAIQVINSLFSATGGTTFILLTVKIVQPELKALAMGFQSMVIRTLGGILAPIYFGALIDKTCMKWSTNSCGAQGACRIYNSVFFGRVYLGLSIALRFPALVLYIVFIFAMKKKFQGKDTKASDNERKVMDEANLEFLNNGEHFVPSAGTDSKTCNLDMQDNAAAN

Series [3] addresses T2, Solute carrier organic anion transporter family member 1B3. Particulars: chinese hamster, cho, 10 µM.
Series [4] has the same target. This is another data set of the same source.
Series [5] deals with T1, Solute carrier organic anion transporter family member 1B1. This is another data set of the same source.
The target is the same in series [6]. Conditions: chinese hamster, cho, 10 µM.

As for `CCCc1nc2c(C)cc(-c3nc4ccccc4n3C)cc2n1Cc1ccc(-c2ccccc2C(=O)O)cc1`, the Ki (usually the dissociation constant of the complex between target and ligand, obtained from inhibition or displacement) in series [1] was determined as 1030 nM; in series [4] it was 960 nM. Besides, the half-maximal inhibitory concentration (IC50) (usually the concentration at which inhibition is half-maximal) in series [2] was 1260 nM; in series [5], 1860 nM. The residual activity (in general, the activity still measured, relative to the control) is recorded as 41.88% in series [3] and 77.57% in series [6].

Regarding `CC(C)=CCC[C@]1(C)C=Cc2c(O)c3c(c(CC=C(C)C)c2O1)O[C@]12C(C[C@@H]4C[C@H]1C(C)(C)O[C@@]2(C/C=C(/C)C(=O)O)C4O)C3=O` (some centres not stated), the Ki in series [1] was found to be 1100 nM; in series [4], 2160 nM. For the same compound, the IC50 in series [2] was 2820 nM; in series [5] it was 2000 nM. Further, the residual activity in series [3] stood at 4.414%; in series [6] it was 12.48%.

Turning to `CC1(C)[C@@H](O)C=C[C@]2(C)[C@H]3CC[C@@]4(C)[C@H](c5ccoc5)OC(=O)[C@H]5O[C@]54[C@]3(C)C(=O)C[C@@H]12`, the inhibitory constant (Ki) in series [1] came to 1330 nM; in series [4], 3810 nM. Moreover, the results for the half-maximal inhibitory concentration (IC50) in series [2] and in series [5] were 5010 nM and 2400 nM, respectively. The values for the residual activity in series [3] and in series [6] were 22.22% and 10.83%, respectively.

In the case of `C[C@@H]1O[C@H](O[C@@H]2[C@@H](O)[C@H](O[C@@H]3[C@@H](O)[C@@H](O)[C@@H](O[C@H]4[C@@H](OC(=O)[C@]56CCC(C)(C)C[C@@H]5C5=CC[C@@H]7[C@@]8(C)CC[C@H](O[C@@H]9O[C@H](CO)[C@@H](O)[C@H](O)[C@H]9O)C(C)(C)[C@@H]8CC[C@@]7(C)[C@]5(C)C[C@H]6O)OC[C@@H](O)[C@@H]4O)O[C@H]3C)OC[C@H]2O)[C@H](O)[C@H](O)[C@H]1O`, the Ki in series [1] turned out to be 1820 nM; in series [4] it was 4020 nM. For the same compound, the IC50 is 5250 nM in series [2] and 3310 nM in series [5]. Besides, the residual activity in series [3] was 17.42%; in series [6] it was 25.14%.

With `C=C1[C@@H]2CC[C@@]3(C)[C@H](c4ccoc4)OC(=O)C[C@]13O[C@H]1C[C@H](OC(C)=O)C(C)(C)[C@H](CC(=O)OC)[C@]12C`, the values for the Ki in series [1] and in series [4] were 510 nM and 3470 nM, respectively. In addition, the concentration for half-maximal inhibition (IC50) was 4470 nM in series [2] and 933 nM in series [5]. Moreover, the residual activity is reported as 21.87% in series [3] and 13.98% in series [6].

Turning to `CC1(C)C(=O)CC[C@]2(C)[C@@H]1C[C@@H](O)[C@]1(C)C3=CC(=O)O[C@H](c4ccoc4)[C@@]3(C)CC[C@@H]21`, the Ki in series [1] was found to be 3440 nM; in series [4], 2550 nM. For the same compound, the IC50 in series [2] is 3310 nM; in series [5], 6310 nM. Besides, the residual activity came to 48.28% in series [3] and 54.82% in series [6].

`CC(=O)O[C@@H]1C[C@H]2C(C)(C)C(=O)CC[C@]2(C)[C@H]2CC[C@]3(C)C(=CC(=O)O[C@H]3c3ccoc3)[C@@]21C`: the Ki in series [1] worked out at 1940 nM; in series [4], 5990 nM. The 50% inhibitory concentration (IC50) in series [2] was 7760 nM; in series [5], 3550 nM. In addition, the residual activity is 54.65% in series [3] and 22.81% in series [6].

Regarding `CC(=O)O[C@H]1C[C@@H](OC(C)=O)C(C)(C)[C@@H]2C[C@@H](OC(C)=O)[C@]3(C)[C@H]([C@H](OC(C)=O)C[C@@]4(C)[C@H](c5ccoc5)OC(=O)[C@H]5O[C@@]534)[C@@]12C`, the inhibition constant Ki in series [1] worked out at 480 nM; in series [4], 3050 nM. In addition, the IC50 in series [2] is 3980 nM; in series [5] it was 871 nM. Besides, the residual activity in series [3] is 46.1%; in series [6], 20.57%.

Turning to `CC(=O)O[C@@H]1CC[C@]2(C)[C@H](C[C@@H](OC(C)=O)[C@]3(C)C4=CC(=O)O[C@H](c5ccoc5)[C@@]4(C)CC[C@@H]23)C1(C)C`, the inhibitory constant (Ki) in series [1] turned out to be 440 nM; in series [4], 1080 nM. The IC50 in series [2] is 1410 nM; in series [5], 813 nM. Further, the residual activity in series [3] came out at 8.019%; in series [6] it was 18.95%.

For the compound `CC(=O)O[C@@H]1C[C@@H]2C(C)(C)[C@H](O)C=C[C@@]2(C)[C@@H]2CC[C@@]3(C)C(=CC(=O)O[C@@H]3c3ccoc3)[C@@]12C`, the inhibition constant (Ki) in series [1] was 1210 nM; in series [4] it was 2890 nM. The values for the concentration for half-maximal inhibition (IC50) in series [2] and in series [5] were 3720 nM and 2190 nM, respectively. Besides, the residual activity in series [3] is reported as 23.16%; in series [6], 6.132%.

`CC(=O)O[C@@H]1C[C@@H]2C(C)(C)C(=O)C=C[C@@]2(C)[C@@H]2CC[C@@]3(C)C(=CC(=O)O[C@@H]3c3ccoc3)[C@@]12C`: the inhibition constant Ki in series [1] is 830 nM; in series [4], 2890 nM. Moreover, the half-inhibitory concentration (IC50) in series [2] is 3800 nM; in series [5], 1510 nM. Also, the residual activity was determined as 22.73% in series [3] and 8.693% in series [6].

As to `CC(=O)O[C@H]1C[C@@H](OC(C)=O)C(C)(C)[C@@H]2C[C@@H](O)[C@@]3(C)[C@H](CC[C@]4(C)[C@@H](c5ccoc5)OC(=O)[C@H]5O[C@@]534)[C@@]12C`, the Ki in series [1] is 540 nM; in series [4], 2270 nM. Further, the 50% inhibitory concentration (IC50) in series [2] is 2950 nM; in series [5], 977 nM. The results for the residual activity in series [3] and in series [6] were 9.535% and 14.28%, respectively.

As to `O=C(O[C@@H]1Cc2c(O)cc(O)cc2O[C@@H]1c1cc(O)c(O)c(O)c1-c1c([C@H]2Oc3cc(O)cc(O)c3C[C@H]2O)cc(O)c(O)c1O)c1cc(O)c(O)c(O)c1` [2',2'-BISEPIGALLOCATECHIN MONOGALLATE], the Ki in series [1] came to 2050 nM; in series [4] it was 6500 nM. The IC50 in series [2] was 8510 nM; in series [5], 3720 nM. In addition, the results for the residual activity in series [3] and in series [6] were 18.79% and 31.07%, respectively.

As to `CC(C)C1=CC2=CC[C@@H]3[C@](C)(CCC[C@@]3(C)C(=O)O)[C@H]2CC1` [ABIETIC ACID], the inhibitory constant (Ki) in series [1] was 1470 nM; in series [4], 4080 nM. The IC50 in series [2] is 5250 nM; in series [5] it was 2690 nM. Also, the residual activity in series [3] turned out to be 33.77%; in series [6], 7.365%.

Regarding `CC(=O)Oc1c2c(c(CC=C(C)C)c3c1C(=O)C1=C[C@@H]4CC5C(C)(C)OC(C/C=C(\C)C(=O)O)(C4=O)[C@@]15O3)OC(C)(CCC=C(C)C)C=C2` (some centres not stated) [ACETYL ISOGAMBOGIC ACID], the Ki amounted to 2240 nM in series [1] and 4170 nM in series [4]. Besides, the IC50 in series [2] is 5370 nM; in series [5], 4070 nM. The residual activity is reported as 30.34% in series [3] and 10.38% in series [6].

With `CC(=O)O[C@@H]1C[C@@]2(C)[C@H](c3ccoc3)C[C@H]3O[C@]32[C@]2(C)C(=O)C(O)=C3C(C)(C)C(=O)C=C[C@]3(C)C12` (some centres not stated) [ANTHOTHECOL], the Ki in series [1] worked out at 1650 nM; in series [4], 2640 nM. The IC50 was 3470 nM in series [2] and 3020 nM in series [5]. Moreover, the results for the residual activity in series [3] and in series [6] were 12.42% and 20.37%, respectively.

On to `CCCCC/C=C\C/C=C\C/C=C\C/C=C\CCCC(=O)O` [ARACHIDONIC ACID], for which the inhibitory constant (Ki) worked out at 330 nM in series [1] and 820 nM in series [4]. The 50% inhibitory concentration (IC50) was 1070 nM in series [2] and 603 nM in series [5]. In addition, the residual activity in series [3] came out at 5.402%; in series [6], 23.4%.

Turning to `Cc1cc2c(C(C)C)c(O)c(O)c(C=O)c2c(O)c1-c1c(C)cc2c(C(C)C)c(O)c(O)c(C=O)c2c1O` [GOSSYPOL], the Ki came out at 1780 nM in series [1] and 3470 nM in series [4]. In addition, the IC50 is 4570 nM in series [2] and 3240 nM in series [5]. Further, in series [6], the residual activity was 24.45% and 68.48%.
